Assay results: patent publication US20250064941A1, “SIGLEC LIGANDS, CONJUGATES, AND METHODS OF USE THEREOF” (Osprey Biopharmaceuticals, Inc., priority 2023, published 2025)

How the values were obtained:
[1] = target: cynomolgus Siglec-2/CD22 (Macaca fascicularis, UniProt A0A2K5WCZ6); assay: biochemical; format: binding; conditions: SPR, steady-state analysis; read-out: Affinity cyno CD22
Summary of the method: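 Compound binding measured by steady-state SPR analysis, 120 s dissociation, in HEPES-NaCl-Tween buffer pH 7.5 containing 1% DMSO, DMSO solvent-corrected. Surface: cyno CD22, sialic acids first stripped by SialoExo for 4 h at 37° C., then amine-coupled onto CM5.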

[2] = target: T1, human Siglec-2/CD22 protein (Homo sapiens, UniProt P20273); assay: SPR binding affinity to human CD22; conditions: steady-state analysis
T1 construct: purchased Acro Biosystems SI2-H82E3
T1 sequence (P20273 20-847): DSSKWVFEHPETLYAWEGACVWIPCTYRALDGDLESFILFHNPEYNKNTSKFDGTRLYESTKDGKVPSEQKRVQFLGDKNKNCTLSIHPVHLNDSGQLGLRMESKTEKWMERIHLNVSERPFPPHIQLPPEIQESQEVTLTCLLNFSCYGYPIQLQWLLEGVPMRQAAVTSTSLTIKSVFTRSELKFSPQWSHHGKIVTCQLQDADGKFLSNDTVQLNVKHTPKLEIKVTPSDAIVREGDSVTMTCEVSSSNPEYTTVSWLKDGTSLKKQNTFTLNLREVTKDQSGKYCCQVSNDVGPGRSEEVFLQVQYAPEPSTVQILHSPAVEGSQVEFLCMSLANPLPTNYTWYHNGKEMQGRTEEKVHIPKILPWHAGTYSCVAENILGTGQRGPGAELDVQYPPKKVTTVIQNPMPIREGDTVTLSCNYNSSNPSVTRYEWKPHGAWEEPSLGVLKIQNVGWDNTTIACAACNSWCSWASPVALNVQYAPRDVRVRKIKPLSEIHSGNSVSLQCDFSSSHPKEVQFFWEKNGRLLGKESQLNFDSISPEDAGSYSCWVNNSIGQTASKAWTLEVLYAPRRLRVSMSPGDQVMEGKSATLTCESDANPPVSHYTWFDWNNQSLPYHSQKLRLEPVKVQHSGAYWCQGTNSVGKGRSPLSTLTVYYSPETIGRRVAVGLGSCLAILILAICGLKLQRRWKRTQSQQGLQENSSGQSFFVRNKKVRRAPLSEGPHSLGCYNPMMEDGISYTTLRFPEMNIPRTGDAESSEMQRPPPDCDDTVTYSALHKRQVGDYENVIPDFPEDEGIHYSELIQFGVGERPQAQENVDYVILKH
Summary of the method: (§1)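 SialoExo pretreatment, 4 h 37° C.; biotinylated CD22 on SA chip, Biacore 8K. Buffer 10 mM HEPES, 150 mM NaCl, 0.05% Tween-20, pH 7.5, 1% DMSO. Dissociation 120 s; solvent-corrected; steady-state KD.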

[3] = target: T2, mouse Siglec-2-Fc-Avi (CD22) (Mus musculus, UniProt P35329); assay: SPR binding affinity to mouse CD22; conditions: steady-state analysis
T2 construct: made in house
T2 sequence (P35329 22-708 limits assumed): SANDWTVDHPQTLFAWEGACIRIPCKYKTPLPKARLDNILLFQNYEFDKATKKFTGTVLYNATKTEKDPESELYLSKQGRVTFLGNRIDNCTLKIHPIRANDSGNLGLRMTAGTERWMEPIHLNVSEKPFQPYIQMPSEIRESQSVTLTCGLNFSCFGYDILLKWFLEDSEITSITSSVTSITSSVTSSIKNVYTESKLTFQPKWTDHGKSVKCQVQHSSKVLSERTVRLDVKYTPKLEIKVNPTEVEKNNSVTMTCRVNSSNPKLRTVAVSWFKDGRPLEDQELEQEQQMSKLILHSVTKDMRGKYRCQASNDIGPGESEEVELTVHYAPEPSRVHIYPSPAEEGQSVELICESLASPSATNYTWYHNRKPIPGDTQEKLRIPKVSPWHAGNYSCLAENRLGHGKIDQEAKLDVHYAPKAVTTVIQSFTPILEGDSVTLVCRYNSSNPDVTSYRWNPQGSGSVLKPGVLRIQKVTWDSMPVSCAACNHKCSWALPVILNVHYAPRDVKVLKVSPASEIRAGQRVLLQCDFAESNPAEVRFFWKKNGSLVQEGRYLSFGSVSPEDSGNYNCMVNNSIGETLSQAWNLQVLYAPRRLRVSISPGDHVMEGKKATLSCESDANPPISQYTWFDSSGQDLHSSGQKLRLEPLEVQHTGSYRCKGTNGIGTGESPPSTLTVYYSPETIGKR
Summary of the method: as §1

Chain of cynomolgus Siglec-2/CD22 (A0A2K5WCZ6 entry or part of it): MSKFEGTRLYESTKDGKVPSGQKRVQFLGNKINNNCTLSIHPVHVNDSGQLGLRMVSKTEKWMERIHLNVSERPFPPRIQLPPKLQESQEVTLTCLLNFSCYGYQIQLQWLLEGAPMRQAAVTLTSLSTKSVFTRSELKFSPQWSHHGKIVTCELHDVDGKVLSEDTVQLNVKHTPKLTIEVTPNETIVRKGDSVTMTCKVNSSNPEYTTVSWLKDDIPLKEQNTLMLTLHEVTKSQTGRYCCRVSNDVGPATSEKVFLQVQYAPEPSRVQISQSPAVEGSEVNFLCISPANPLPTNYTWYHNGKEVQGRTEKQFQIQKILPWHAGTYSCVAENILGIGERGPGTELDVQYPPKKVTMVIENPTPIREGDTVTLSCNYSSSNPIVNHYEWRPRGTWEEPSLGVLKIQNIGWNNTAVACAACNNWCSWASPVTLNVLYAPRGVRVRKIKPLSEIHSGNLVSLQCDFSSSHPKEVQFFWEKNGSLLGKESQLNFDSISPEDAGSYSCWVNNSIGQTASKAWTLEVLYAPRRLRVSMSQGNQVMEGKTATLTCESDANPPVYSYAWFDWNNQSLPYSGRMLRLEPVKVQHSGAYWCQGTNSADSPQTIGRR

| Compound | Kd [1] [nM] | Kd [2] [nM] | Kd [3] [nM] |
| --- | --- | --- | --- |
| C#CCOc1ccc(CO[C@]2(C(=O)O)C[C@H](O)[C@@H](NC(=O)CO)[C@H]([C@H](O)[C@H](O)CNC(=O)Cc3ccc(-c4ccc(O)cc4)cc3C)O2)cc1 [Compound 56, (2R,4S,5R,6R)-6-((1R,2R)-1,2-dihydroxy-3-(2-(4′-hydroxy-3-methyl-[1,1′-biphenyl]-4-yl)acetamido)propyl)-4-hydroxy-5-(2-hydroxyacetamido)-2-((4-(prop-2-yn-1-yloxy)benzyl)oxy)tetrahydro-2H-pyran-2-carboxylic acid] | 1000 to 10000 | < 1000 | < 1000 |
| C#CCOCCCCCCO[C@]1(C(=O)O)C[C@H](O)[C@@H](NC(=S)NC)[C@H]([C@H](O)[C@H](O)CNC(=O)Cc2ccc(Cl)cc2)O1 [Compound 84, (2R,4S,5R,6R)-6-((1R,2R)-3-(2-(4-chlorophenyl)acetamido)-1,2-dihydroxypropyl)-4-hydroxy-5-(3-methylthioureido)-2-((6-(prop-2-yn-1-yloxy)hexyl)oxy)tetrahydro-2H-pyran-2-carboxylic acid] | 1000 to 10000 | < 1000 | 1000 to 10000 |
| CC(=O)NCCOCCOCCOCCOCCNc1c(NCCOCCOCCO[C@]2(C(=O)O)C[C@H](O)[C@@H](NC(=O)CO)[C@H]([C@H](O)[C@H](O)CNC(=O)Cc3ccc(Cl)cc3)O2)c(=O)c1=O [Cpd. 247, (2R,4S,5R,6R)-6-((1R,2R)-3-(2-(4-chlorophenyl)acetamido)-1,2-dihydroxypropyl)-2-(2-(2-(2-((3,4-dioxo-2-((2-oxo-6,9,12,15-tetraoxa-3-azaheptadecan-17-yl)amino)cyclobut-1-en-1-yl)amino)ethoxy)ethoxy)ethoxy)-4-hydroxy-5-(2-hydroxyacetamido) tetrahydro-2H-pyran-2-carboxylic acid] | 1000 to 10000 | 1000 to 10000 | 1000 to 10000 |
| C#CCOCCOCCO[C@]1(C(=O)O)C[C@H](O)[C@@H](NC(=O)CO)[C@H]([C@@H](F)[C@H](O)CNC(=O)Cc2ccc(-c3ccccc3)cc2)O1 [Compound 32] | > 10000 | > 10000 | > 10000 |
| C#CCOCCOCCO[C@]1(C(=O)O)C[C@H](O)[C@@H](NC(=O)CO)[C@H]([C@H](O)[C@H](O)CNC(=O)Cc2ccc(-c3ccc(=O)[nH]c3)cc2)O1 [Compound 74, (2R,4S,5R,6R)-6-((1R,2R)-1,2-dihydroxy-3-(2-(4-(6-oxo-1,6-dihydropyridin-3-yl)phenyl)acetamido)propyl)-4-hydroxy-5-(2-hydroxyacetamido)-2-(2-(2-(prop-2-yn-1-yloxy)ethoxy)ethoxy)tetrahydro-2H-pyran-2-carboxylic acid] | 1000 to 10000 | 1000 to 10000 | 1000 to 10000 |
| C#CCOCCCCCCO[C@]1(C(=O)O)C[C@H](O)[C@@H](NC(=O)CN(C)C)[C@H]([C@H](O)[C@H](O)CNC(=O)Cc2ccc(Cl)cc2)O1 [Compound 25, (2R,4S,5R,6R)-6-((1R,2R)-3-(2-(4-chlorophenyl)acetamido)-1,2-dihydroxypropyl)-5-(2-(dimethylamino)acetamido)-4-hydroxy-2-((6-(prop-2-yn-1-yloxy)hexyl)oxy)tetrahydro-2H-pyran-2-carboxylic acid] | 1000 to 10000 | > 10000 | 1000 to 10000 |
| C#CCOc1ccc(CO[C@]2(C(=O)O)C[C@H](O)[C@@H](NC(=O)CO)[C@H]([C@H](O)[C@H](O)CNC(=O)Cc3cccc(O)c3)O2)cc1 [Compound 150, (2R,4S,5R,6R)-6-((1R,2R)-1,2-dihydroxy-3-(2-(3-hydroxyphenyl)acetamido)propyl)-4-hydroxy-5-(2-hydroxyacetamido)-2-((4-(prop-2-yn-1-yloxy)benzyl)oxy)tetrahydro-2H-pyran-2-carboxylic acid] | 1000 to 10000 | < 1000 | 1000 to 10000 |
| C#CCOCCCCCCO[C@]1(C(=O)O)C[C@H](O)[C@@H](NC(=O)C(N)=O)[C@H]([C@H](O)[C@H](O)CNC(=O)Cc2ccc(Cl)cc2)O1 [Compound 223, (2R,4S,5R,6R)-5-(2-amino-2-oxoacetamido)-6-((1R,2R)-3-(2-(4-chlorophenyl)acetamido)-1,2-dihydroxypropyl)-4-hydroxy-2-((6-(prop-2-yn-1-yloxy)hexyl)oxy)tetrahydro-2H-pyran-2-carboxylic acid] | 1000 to 10000 | < 1000 | 1000 to 10000 |
| C#CCCOc1ccc(CS[C@]2(C(=O)O)C[C@H](O)[C@@H](NC(=O)CO)[C@H]([C@H](O)[C@H](O)CNC(=O)Cc3ccc(Cl)c(O)c3)O2)cc1 [Compound 131, (2S,4S,5R,6R)-2-((4-(but-3-yn-1-yloxy)benzyl)thio)-6-((1R,2R)-3-(2-(4-chloro-3-hydroxyphenyl)acetamido)-1,2-dihydroxypropyl)-4-hydroxy-5-(2-hydroxyacetamido)tetrahydro-2H-pyran-2-carboxylic acid] | < 1000 | < 1000 | < 1000 |

The next lines start with the values.

| Kd [1] [nM] | Kd [2] [nM] | Kd [3] [nM] | Compound |
| --- | --- | --- | --- |
| < 1000 | < 1000 | < 1000 | C#CCCOc1cccc(CO[C@]2(C(=O)O)C[C@H](O)[C@@H](NC(=O)CO)[C@H]([C@H](O)[C@H](O)CNC(=O)Cc3ccc(-c4ccccc4)cc3)O2)c1 [Compound 38, (2R,4S,5R,6R)-6-((1R,2R)-3-(2-([1,1′-biphenyl]-4-yl)acetamido)-1,2-dihydroxypropyl)-2-((3-(but-3-yn-1-yloxy)benzyl)oxy)-4-hydroxy-5-(2-hydroxyacetamido)tetrahydro-2H-pyran-2-carboxylic acid] |
| < 1000 | < 1000 | < 1000 | C#CCN(CC(=O)O)C(=O)CCCCCO[C@]1(C(=O)O)C[C@H](O)[C@@H](NC(=O)CO)[C@H]([C@H](O)[C@H](O)CNC(=O)Cc2ccc(Cl)cc2)O1 [Compound 100, (2R,4S,5R,6R)-2-((6-((carboxymethyl)(prop-2-yn-1-yl)amino)-6-oxohexyl)oxy)-6-((1R,2R)-3-(2-(4-chlorophenyl)acetamido)-1,2-dihydroxypropyl)-4-hydroxy-5-(2-hydroxyacetamido)tetrahydro-2H-pyran-2-carboxylic acid] |
| < 1000 | < 1000 | < 1000 | C#CCCCCCCCCO[C@]1(C(=O)O)C[C@H](O)[C@@H](NC(=O)CO)[C@H]([C@H](O)[C@H](O)CNC(=O)Cc2ccc(Cl)cc2)O1 [Compound 109, (2R,4S,5R,6R)-6-((1R,2R)-3-(2-(4-chlorophenyl)acetamido)-1,2-dihydroxypropyl)-2-(dec-9-yn-1-yloxy)-4-hydroxy-5-(2-hydroxyacetamido)tetrahydro-2H-pyran-2-carboxylic acid] |
| < 1000 | < 1000 | < 1000 | C#CCOCCCCCCO[C@]1(C(=O)O)C[C@H](O)[C@@H](NC(=O)CO)[C@H]([C@H](O)[C@H](O)CNC(=O)Cc2ccc(-c3ccc(O)cc3)cc2)O1 [Compound 63, (2R,4S,5R,6R)-6-((1R,2R)-1,2-dihydroxy-3-(2-(4′-hydroxy-[1,1′-biphenyl]-4-yl)acetamido)propyl)-4-hydroxy-5-(2-hydroxyacetamido)-2-((6-(prop-2-yn-1-yloxy)hexyl)oxy)tetrahydro-2H-pyran-2-carboxylic acid] |
